This data set is described as follows: Turbidity assay of relative solubility in aqueous buffers. The class given is physicochemical. The following applies: for turbidity threshold (L, M, H) 1.4: pH 1.4 as headed (method: SGF pH 1.5); for turbidity threshold (L, M, H) 4.5: pH 4.5 (SIF); for turbidity threshold (L, M, H) 6.8: pH 6.8 (SIF); for turbidity threshold (L, M, H) 7.4: pH 7.4 (HEPES). The protocol: As an indication of relative solubility, the turbidity of compounds in aqueous solutions is assessed. To assess possible compound properties in different physiological compartments, such as stomach, intestine, and blood, a series of aqueous buffers with varying pH is used. Thus each compound is diluted into four different physiologically relevant buffers and solution turbidity is measured by spectrophotometry.
Compounds are dissolved at a concentration of 25 mM in dimethyl sulfoxide, then serially diluted 1:1 into a 96 well plate, diluting 10 times in pure dimethyl sulfoxide, with the final well of each row a dimethyl sulfoxide blank. In an assay plate, 99 μL of appropriate buffer is added to each well, and 1 μL of each sample dilution is added to the buffer, achieving a range of final total concentrations in aqueous solutions having different pH. The buffers used are Simulated Gastric Fluid (SGF-pH 1.5) 0.5M NaCl, pH 1.5; Simulated Intestinal fluid (SIF-pH 4.5 and pH 6.8) 0.05M NaH2PO4, pH 4.5 and 6.8; and Hepes Buffer (HEPES-pH 7.4) 10 mM HEPES, 150 mM NaCl, pH 7.4. Control compounds pyrene, estriol and propranolol HCl are also assessed. Plates are spun and then mixed for 1 minute, and the absorbance is read using a Tecan Safire II to read wavelengths in the visible range (490, 535, and 650 nm) at four locations per well, reflecting the degree of turbidity present. The average optical density for each wavelength in each well is graphed vs. compound concentration, and the concentration at which the curve crosses a threshold O.D. of 0.01 for each wavelength is reported as the endpoint turbidity assay result. The average of the three wavelengths is used to compare turbidity of compounds. Compounds are considered to have low solubility if the threshold concentration is <31.3 μM, moderate solubility if the threshold concentration is 31.3 μM to 250 μM, and high solubility if the threshold concentration is >250 μM.

Regarding `COc1ccc(CNc2ncc(Cc3c[nH]c4ncc(C)cc34)cc2C)cn1` [Compound P-1554, (6-Methoxy-pyridin-3-ylmethyl)-[3-methyl-5-(5-methyl-1H-pyrrolo[2,3-b]pyridin-3-ylmethyl)-pyridin-2-yl]-amine], the “turbidity threshold (L, M, H) 1.4” value is “H (high solubility if the threshold concentration is >250 μM)”; the “turbidity threshold (L, M, H) 4.5” value is given as “H (high solubility if the threshold concentration is >250 μM)”; the “turbidity threshold (L, M, H) 6.8” value is reported as “M (moderate solubility if the threshold concentration is 31.3 μM to 250 μM)”; the “turbidity threshold (L, M, H) 7.4” value is given as “M (moderate solubility if the threshold concentration is 31.3 μM to 250 μM)”.
As for `COc1ccc(CNc2ncc(Cc3c[nH]c4ncc(C)cc34)cc2F)cn1` [Compound P-1562, [3-Fluoro-5-(5-methyl-1H-pyrrolo[2,3-b]pyridin-3-ylmethyl)-pyridin-2-yl]-(6-methoxy-pyridin-3-ylmethyl)-amine], the “turbidity threshold (L, M, H) 1.4” value is given as “H (high solubility if the threshold concentration is >250 μM)”; the “turbidity threshold (L, M, H) 4.5” value is listed as “H (high solubility if the threshold concentration is >250 μM)”; the “turbidity threshold (L, M, H) 6.8” value is “M (moderate solubility if the threshold concentration is 31.3 μM to 250 μM)”; the “turbidity threshold (L, M, H) 7.4” value is given as “M (moderate solubility if the threshold concentration is 31.3 μM to 250 μM)”.
Take `COc1ccc(CNc2ccc(Cc3c[nH]c4ncc(F)cc34)c(F)n2)cn1` [Compound P-1622, [6-Fluoro-5-(5-fluoro-1H-pyrrolo[2,3-b]pyridin-3-ylmethyl)-pyridin-2-yl]-(6-methoxy-pyridin-3-ylmethyl)-amine]: the “turbidity threshold (L, M, H) 1.4” value is “H (high solubility if the threshold concentration is >250 μM)”; the “turbidity threshold (L, M, H) 4.5” value is “M (moderate solubility if the threshold concentration is 31.3 μM to 250 μM)”; the “turbidity threshold (L, M, H) 6.8” value was “M (moderate solubility if the threshold concentration is 31.3 μM to 250 μM)”; the “turbidity threshold (L, M, H) 7.4” value is “M (moderate solubility if the threshold concentration is 31.3 μM to 250 μM)”.
Turning to `COc1ncc(F)cc1CNc1ccc(Cc2c[nH]c3ncc(NC(C)=O)cc23)c(F)n1` [Compound P-1669, N-(3-{2-fluoro-6-[(5-fluoro-2-methoxy-pyridin-3-ylmethyl)-amino]-pyridin-3-ylmethyl}-1H-pyrrolo[2,3-b]pyridin-5-yl)-acetamide], the “turbidity threshold (L, M, H) 1.4” value is reported as “M (moderate solubility if the threshold concentration is 31.3 μM to 250 μM)”; the “turbidity threshold (L, M, H) 4.5” value was “M (moderate solubility if the threshold concentration is 31.3 μM to 250 μM)”; the “turbidity threshold (L, M, H) 6.8” value was “M (moderate solubility if the threshold concentration is 31.3 μM to 250 μM)”; the “turbidity threshold (L, M, H) 7.4” value is “M (moderate solubility if the threshold concentration is 31.3 μM to 250 μM)”.
On to `CS(=O)(=O)Nc1cnc2[nH]cc(Cc3ccc(NCc4ccc(Cl)nc4)nc3F)c2c1` [Compound P-1679, N-(3-{6-[(6-Chloro-pyridin-3-ylmethyl)-amino]-2-fluoro-pyridin-3-ylmethyl}-1H-pyrrolo[2,3-b]pyridin-5-yl)-methanesulfonamide], for which the “turbidity threshold (L, M, H) 1.4” value is “M (moderate solubility if the threshold concentration is 31.3 μM to 250 μM)”; the “turbidity threshold (L, M, H) 4.5” value was “L (low solubility if the threshold concentration is <31.3 μM)”; the “turbidity threshold (L, M, H) 6.8” value is recorded as “L (low solubility if the threshold concentration is <31.3 μM)”; the “turbidity threshold (L, M, H) 7.4” value is “L (low solubility if the threshold concentration is <31.3 μM)”.
For `Fc1cncc(CNc2ccc(Cc3c[nH]c4ncc(Cl)cc34)c(F)n2)c1` [Compound P-2001, [5-(5-Chloro-1H-pyrrolo[2,3-b]pyridin-3-ylmethyl)-6-fluoro-pyridin-2-yl]-(5-fluoro-pyridin-3-ylmethyl)-amine], the “turbidity threshold (L, M, H) 1.4” value is listed as “M (moderate solubility if the threshold concentration is 31.3 μM to 250 μM)”; the “turbidity threshold (L, M, H) 4.5” value is listed as “L (low solubility if the threshold concentration is <31.3 μM)”; the “turbidity threshold (L, M, H) 6.8” value is listed as “L (low solubility if the threshold concentration is <31.3 μM)”; the “turbidity threshold (L, M, H) 7.4” value is on record as “L (low solubility if the threshold concentration is <31.3 μM)”.
Take `COc1cnc2[nH]cc(Cc3ccc(NCc4cncc(F)c4)nc3F)c2c1` [Compound P-2028, [6-Fluoro-5-(5-methoxy-1H-pyrrolo[2,3-b]pyridin-3-ylmethyl)-pyridin-2-yl]-(5-fluoro-pyridin-3-ylmethyl)-amine]: the “turbidity threshold (L, M, H) 1.4” value is on record as “H (high solubility if the threshold concentration is >250 μM)”; the “turbidity threshold (L, M, H) 4.5” value is given as “M (moderate solubility if the threshold concentration is 31.3 μM to 250 μM)”; the “turbidity threshold (L, M, H) 6.8” value is “M (moderate solubility if the threshold concentration is 31.3 μM to 250 μM)”; the “turbidity threshold (L, M, H) 7.4” value is given as “M (moderate solubility if the threshold concentration is 31.3 μM to 250 μM)”.
Consider `COc1ncccc1CNc1ccc(Cc2c[nH]c3ncccc23)c(F)n1` [Compound P-2045, [6-Fluoro-5-(1H-pyrrolo[2,3-b]pyridin-3-ylmethyl)-pyridin-2-yl]-(2-methoxy-pyridin-3-ylmethyl)-amine], for which the “turbidity threshold (L, M, H) 1.4” value was “H (high solubility if the threshold concentration is >250 μM)”; the “turbidity threshold (L, M, H) 4.5” value is on record as “M (moderate solubility if the threshold concentration is 31.3 μM to 250 μM)”; the “turbidity threshold (L, M, H) 6.8” value is recorded as “M (moderate solubility if the threshold concentration is 31.3 μM to 250 μM)”; the “turbidity threshold (L, M, H) 7.4” value was “M (moderate solubility if the threshold concentration is 31.3 μM to 250 μM)”.
`COc1ncccc1CNc1ccc(Cc2c[nH]c3ncc(C)cc23)c(F)n1` [Compound P-2052, [6-Fluoro-5-(5-methyl-1H-pyrrolo[2,3-b]pyridin-3-ylmethyl)-pyridin-2-yl]-(2-methoxy-pyridin-3-ylmethyl)-amine]: the “turbidity threshold (L, M, H) 1.4” value is listed as “H (high solubility if the threshold concentration is >250 μM)”; the “turbidity threshold (L, M, H) 4.5” value is recorded as “L (low solubility if the threshold concentration is <31.3 μM)”; the “turbidity threshold (L, M, H) 6.8” value was “L (low solubility if the threshold concentration is <31.3 μM)”; the “turbidity threshold (L, M, H) 7.4” value is reported as “L (low solubility if the threshold concentration is <31.3 μM)”.
`COc1ncc(F)cc1CNc1ncc(Cc2c[nH]c3ncc(C)cc23)cn1` [Compound P-2061, (5-Fluoro-2-methoxy-pyridin-3-ylmethyl)-[5-(5-methyl-1H-pyrrolo[2,3-b]pyridin-3-ylmethyl)-pyrimidin-2-yl]-amine]: the “turbidity threshold (L, M, H) 1.4” value is given as “H (high solubility if the threshold concentration is >250 μM)”; the “turbidity threshold (L, M, H) 4.5” value is reported as “M (moderate solubility if the threshold concentration is 31.3 μM to 250 μM)”; the “turbidity threshold (L, M, H) 6.8” value is reported as “M (moderate solubility if the threshold concentration is 31.3 μM to 250 μM)”; the “turbidity threshold (L, M, H) 7.4” value is on record as “L (low solubility if the threshold concentration is <31.3 μM)”.
Take `Cc1cnc2[nH]cc(Cc3ccc(NCc4cnccc4C(F)(F)F)nc3F)c2c1` [Compound P-2062, [6-Fluoro-5-(5-methyl-1H-pyrrolo[2,3-b]pyridin-3-ylmethyl)-pyridin-2-yl]-(4-trifluoromethyl-pyridin-3-ylmethyl)-amine]: the “turbidity threshold (L, M, H) 1.4” value is “H (high solubility if the threshold concentration is >250 μM)”; the “turbidity threshold (L, M, H) 4.5” value is recorded as “L (low solubility if the threshold concentration is <31.3 μM)”; the “turbidity threshold (L, M, H) 6.8” value is “L (low solubility if the threshold concentration is <31.3 μM)”; the “turbidity threshold (L, M, H) 7.4” value was “L (low solubility if the threshold concentration is <31.3 μM)”.
Regarding `COc1ncc(F)cc1CNc1ncc(Cc2c[nH]c3ncc(Cl)cc23)cn1` [Compound P-2064, [5-(5-Chloro-1H-pyrrolo[2,3-b]pyridin-3-ylmethyl)-pyrimidin-2-yl]-(5-fluoro-2-methoxy-pyridin-3-ylmethyl)-amine], the “turbidity threshold (L, M, H) 1.4” value was “H (high solubility if the threshold concentration is >250 μM)”; the “turbidity threshold (L, M, H) 4.5” value was “M (moderate solubility if the threshold concentration is 31.3 μM to 250 μM)”; the “turbidity threshold (L, M, H) 6.8” value is “L (low solubility if the threshold concentration is <31.3 μM)”; the “turbidity threshold (L, M, H) 7.4” value is on record as “L (low solubility if the threshold concentration is <31.3 μM)”.
On to `COc1cc(CNc2ccc(Cc3c[nH]c4ncc(C)cc34)c(F)n2)c(F)cn1` [Compound P-2071, (5-Fluoro-2-methoxy-pyridin-4-ylmethyl)-[6-fluoro-5-(5-methyl-1H-pyrrolo[2,3-b]pyridin-3-ylmethyl)-pyridin-2-yl]-amine], for which the “turbidity threshold (L, M, H) 1.4” value is on record as “M (moderate solubility if the threshold concentration is 31.3 μM to 250 μM)”; the “turbidity threshold (L, M, H) 4.5” value is reported as “L (low solubility if the threshold concentration is <31.3 μM)”; the “turbidity threshold (L, M, H) 6.8” value is “L (low solubility if the threshold concentration is <31.3 μM)”; the “turbidity threshold (L, M, H) 7.4” value is listed as “L (low solubility if the threshold concentration is <31.3 μM)”.
